Assay results taken from publication PMC8654833 (Scientific Reports, 2021).

Key:
Ca^2+ channel, ds = test: Radioligand binding competition dose-response (Euroscreen), Ca2+ channel diltiazem site
Protocol: (§1) This study included binding assays (87 GPCR targets), measured as % of binding inhibition of a reference radioligand, as well as uptake and enzyme assays (19 targets), the latter measured as % inhibition of control enzyme activity. […] It was performed by radioligand binding competition by Euroscreen (Euroscreen FAST, Belgium). The following nanomolar concentrations were tested in duplicate: 0.001, 0.01, 0.1, 1, 10, 100, 1000, 10,000. Dose–response curves were fitted with the least squares method. IC50 results are shown as pIC50, corresponding to the negative log10 of IC50 in molar.

5-HT5A = biological target: T1, 5-HT5A (Homo sapiens, UniProt P47898); test: Radioligand binding competition dose-response (Euroscreen), 5-HT5A; settings: dose-response study, maximal concentration 10 µM, [3H]LSD
T1 construct: Euroscreen FAST (contract assay)
Protocol: as §1

DAT = biological target: T2, DAT (Homo sapiens, UniProt Q01959); test: Radioligand binding competition dose-response (Euroscreen), dopamine transporter; settings: dose-response study, maximal concentration 10 µM, [3H]WIN 35,428; read-out: %Binding inhibition at 10 µM
T2 construct: Euroscreen FAST (contract assay)
Protocol: as §1

5-HT2A = 5-HT2A (Homo sapiens, UniProt P28223); test: biochemical; settings: read-out: %Binding inhibition at 10 µM
Protocol: as §1

Ca^2+ channel, vs = test: Radioligand binding competition dose-response (Euroscreen), Ca2+ channel verapamil site
Protocol: as §1

T1 sequence (P47898 whole entry, species assumed): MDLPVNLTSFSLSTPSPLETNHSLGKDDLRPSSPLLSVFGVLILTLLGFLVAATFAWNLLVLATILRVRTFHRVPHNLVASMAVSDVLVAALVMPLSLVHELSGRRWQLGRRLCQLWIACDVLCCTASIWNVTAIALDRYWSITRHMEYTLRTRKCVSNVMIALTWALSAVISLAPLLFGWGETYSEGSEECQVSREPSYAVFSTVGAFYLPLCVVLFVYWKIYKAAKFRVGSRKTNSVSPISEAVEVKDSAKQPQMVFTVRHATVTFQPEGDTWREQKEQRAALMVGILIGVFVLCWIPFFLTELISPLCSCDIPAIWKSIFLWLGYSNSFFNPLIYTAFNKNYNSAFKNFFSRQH
T2 sequence (Q01959 whole entry, species assumed): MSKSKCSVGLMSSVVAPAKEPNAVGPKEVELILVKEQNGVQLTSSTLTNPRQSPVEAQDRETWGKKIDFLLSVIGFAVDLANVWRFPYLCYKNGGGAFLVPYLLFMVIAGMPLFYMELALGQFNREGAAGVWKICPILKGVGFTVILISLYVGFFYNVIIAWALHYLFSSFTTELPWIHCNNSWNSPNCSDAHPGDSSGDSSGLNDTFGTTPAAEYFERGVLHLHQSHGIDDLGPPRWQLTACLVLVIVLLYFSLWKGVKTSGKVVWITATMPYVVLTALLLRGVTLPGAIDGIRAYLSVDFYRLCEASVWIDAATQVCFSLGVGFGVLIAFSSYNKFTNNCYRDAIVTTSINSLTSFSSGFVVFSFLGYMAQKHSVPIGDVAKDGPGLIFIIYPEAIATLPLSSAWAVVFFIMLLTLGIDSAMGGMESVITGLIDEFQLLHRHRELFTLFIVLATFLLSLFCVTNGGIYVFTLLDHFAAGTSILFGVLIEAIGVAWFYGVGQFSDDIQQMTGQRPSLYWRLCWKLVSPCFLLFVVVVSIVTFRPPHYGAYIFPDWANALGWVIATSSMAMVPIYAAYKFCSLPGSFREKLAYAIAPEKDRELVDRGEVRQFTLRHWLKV
Sequence of 5-HT2A (P28223 whole entry, species assumed): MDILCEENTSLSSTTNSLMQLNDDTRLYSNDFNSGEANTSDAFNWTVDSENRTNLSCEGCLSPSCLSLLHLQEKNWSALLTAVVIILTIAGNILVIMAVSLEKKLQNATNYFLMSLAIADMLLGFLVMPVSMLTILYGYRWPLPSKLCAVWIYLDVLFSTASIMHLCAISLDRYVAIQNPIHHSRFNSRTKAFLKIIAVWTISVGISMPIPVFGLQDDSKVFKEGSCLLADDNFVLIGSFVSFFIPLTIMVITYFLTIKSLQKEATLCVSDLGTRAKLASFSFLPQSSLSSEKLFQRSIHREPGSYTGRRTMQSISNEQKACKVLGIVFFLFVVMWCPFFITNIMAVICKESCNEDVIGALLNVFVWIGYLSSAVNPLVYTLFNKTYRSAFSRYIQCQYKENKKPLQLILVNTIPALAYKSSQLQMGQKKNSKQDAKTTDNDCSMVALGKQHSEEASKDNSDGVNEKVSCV

COc1ccc([C@@H]2Sc3ccccc3N(CCN(C)C)C(=O)[C@@H]2OC(C)=O)cc1 [Diltiazem]
pIC50 (Ca^2+ channel, ds; [3H]diltiazem competition): 4.79 | %Binding inhibition at 10 µM (Ca^2+ channel, ds; dose-response study, maximal concentration 10 µM, [3H]diltiazem): 116.63%

CSc1ccc2c(c1)C(N1CCN(C)CC1)Cc1ccccc1S2 (stereo not shown) [Methiothepin]
%Binding inhibition at 10 µM (5-HT5A): 101.21%

Fc1ccc(C(OCCN2CCN(CCCc3ccccc3)CC2)c2ccc(F)cc2)cc1 [GBR 12909]
inhibition at 10 µM (DAT): 104%

O=C(c1ccc(F)cc1)C1CCN(CCn2c(=O)[nH]c3ccccc3c2=O)CC1 [Ketanserin]
inhibition at 10 µM (5-HT2A): 103%

COc1ccc(CCN(C)CCCC(C#N)(c2cc(OC)c(OC)c(OC)c2)C(C)C)cc1OC (stereo not shown) [Methoxyverapamil]
pIC50 (Ca^2+ channel, vs; [3H]D888 competition): 6.56 | %Binding inhibition at 10 µM (Ca^2+ channel, vs; dose-response study, maximal concentration 10 µM, [3H]D888): 112.06%
